Results published in patent US7320981B2, “Variolin derivatives as anti-cancer agents” (Pharma Mar, S.A., priority 2000, dated 2008).
Like-named read-outs stand apart in the source and are kept apart here.

Columns and labels:
[1] = system: A-549; test: SRB cell growth/viability assay, A-549; conditions: for GI50 / CC50: Homo sapiens, A549, 48 h
Text: (§1) A colorimetric type of assay, using sulforhodamine B (SRB) reaction has been adapted for a quantitative measurement of cell growth and viability: see Skehan, P. A. et al. J. Natl. Cancer Inst., 1990, 82, 1107-1112. This form of the assay employs 96 well cell culture microplates of 9 mm diameter (Faircloth, G. T.; Stewart, D. and Clement, J. J., Journal of Tissue and Culture Methods, 1983, 11, 201-205; Mosmann, T. Journal of Immunological Methods, 1983, 65, 55-63.).
(§2) Most of the cell lines are obtained from American Type Culture Collection (ATCC) derived from different human cancer types. Cells are maintained in RPMI 1640 10% FBS, supplemented with 0.1 g/l penicillin and 0.1 g/l streptomycin sulfate and then incubated at 37° C., 5% CO2 and 98% humidity. For the experiments, cells were harvested from subconfluent cultures using trypsin and resuspended in fresh medium before plating.
(§3) Cells are seeded in 96 well microtiter plates, at 5×10^3 cells per well in aliquots of 195 μl medium, and they are allowed to attach to the plate surface by growing in drug free medium for 18 hours. Afterward, samples are in aliquots of 5 pi in a ranging from 10 to 10-8 μg/ml dissolved in DMSO/EtOH (0.2% in PS buffer). After 48 hours exposure, the antitumour effect are measured by the SRB methodology: cells are fixed by adding 50 μl of cold 50% (w/v) trichloroacetic acid (TCA) and incubating for 60 minutes at 4° C. Plates are washed with deionized water and dried. 100 μl of SRB solution (0.4% w/v in 1% acetic acid) is added to each microtiter well and incubated for 10 minutes at room temperature. Unbound SRB is removed by washing with 1% acetic acid. Plates are air-dried and bound stain is solubilized with Tris buffer. Optical densities are read on an automated spectrophotometric plate reader at a single wavelength of 490 nm.
(§4) The values for mean +/− SD of data from triplicate wells are calculated Some parameters for cellular responses can be calculated: […], TGI=total growth inhibition (cytostatic effect) and LC=cell killing (cytotoxic effect).

[2] = system: A498; test: SRB cell growth/viability assay, A498; conditions: for GI50 / CC50: Homo sapiens, A498, 48 h; for GI50: read-out: GI50 (50% growth inhibition); for CC50: read-out: LC50 (50% net cell killing, cytotoxic effect)
Text: as §1, §2, §3, §4

[3] = system: HT-29; test: SRB cell growth/viability assay, HT-29; conditions: for GI50 / CC50: Homo sapiens, HT-29, 48 h
Text: as §1, §2, §3, §4

[4] = system: SW-620; test: SRB cell growth/viability assay, SW-620; conditions: for GI50 / CC50: Homo sapiens, SW-620, 48 h; for GI50: read-out: GI50 (50% growth inhibition); for CC50: read-out: LC50 (50% net cell killing, cytotoxic effect)
Text: as §1, §2, §3, §4

[5] = system: MEL-28; test: SRB cell growth/viability assay, MEL-28; conditions: for GI50 / CC50: Homo sapiens, SK-MEL-28, 48 h; for GI50: read-out: GI50 (50% growth inhibition); for CC50: read-out: LC50 (50% net cell killing, cytotoxic effect)
Text: as §1, §2, §3, §4

[6] = system: DU-145; test: SRB cell growth/viability assay, DU-145; conditions: for GI50 / CC50: Homo sapiens, DU-145, 48 h; for GI50: read-out: GI50 (50% growth inhibition); for CC50: read-out: LC50 (50% net cell killing, cytotoxic effect)
Text: as §1, §2, §3, §4

[7] = system: MB-231; test: SRB cell growth/viability assay, MB-231; conditions: for GI50 / CC50: Homo sapiens; for GI50: read-out: GI50 (50% growth inhibition); for CC50: read-out: LC50 (50% net cell killing, cytotoxic effect)
Text: as §1, §2, §3, §4

[8] = system: MCF-7; test: SRB cell growth/viability assay, MCF-7; conditions: for GI50 / CC50: Homo sapiens, MCF7, 48 h; for GI50: read-out: GI50 (50% growth inhibition); for CC50: read-out: LC50 (50% net cell killing, cytotoxic effect)
Text: as §1, §2, §3, §4

[9] = system: OVCAR-3; test: cells; type: cell-based
Text: Plates are washed with deionized water and dried.

[10] = read-out: GI50 (50% growth inhibition)
[11] = read-out: LC50 (50% net cell killing, cytotoxic effect)

Nc1nccc(-c2c3c(O)ccnc3n3c(N)nccc23)n1 [Compound 1, Variolin B]
TGI (total growth inhibition, cytostatic effect) ([1]; 48 h): 1.E−06 M
GI50 ([1]; read-out: A-549 GI50): 170 nM
CC50 ([1]; read-out: A-549 LC50): 170000 nM
GI50 [1, 10]: 700 nM
CC50 [1, 11]: 3000 nM
A-549 TGI ([1]; Table 2, A-549, 48 hours exposure, SRB): 6.8 10^−7 M
TGI (total growth inhibition, cytostatic effect) ([2]; 48 h): 3.E−07 M
GI50 [2]: 100 nM
CC50 [2]: 2000 nM
TGI (total growth inhibition, cytostatic effect) ([3]; 48 h): 1.E−06 M
GI50 [3, 10]: 700 nM
GI50 ([3]; read-out: HT-29 GI50): 1000 nM
CC50 ([3]; read-out: HT-29 LC50): > 170000 nM
CC50 [3, 11]: 3000 nM
HT-29 TGI ([3]; Table 2, HT-29, 48 hours exposure, SRB): 1.7 10^−5 M
TGI (total growth inhibition, cytostatic effect) ([4]; 48 h): 3.E−07 M
GI50 [4]: 100 nM
CC50 [4]: 2000 nM
TGI (total growth inhibition, cytostatic effect) ([5]; 48 h): 1.E−06 M
GI50 [5]: 700 nM
CC50 [5]: 2000 nM
TGI (total growth inhibition, cytostatic effect) ([6]; 48 h): 3.E−07 M
GI50 [6]: 100 nM
CC50 [6]: 1000 nM
TGI (total growth inhibition, cytostatic effect) ([7]; 48 h): 1.E−06 M
GI50 ([7]; 48 h): 300 nM
CC50 ([7]; 48 h): 3000 nM
TGI (total growth inhibition, cytostatic effect) ([8]; 48 h): 2.E−06 M
GI50 [8]: 700 nM
CC50 [8]: 2000 nM

Nc1nccc(-c2c3cccnc3n3c(N)nccc23)n1 [Compound 4, deoxyvariolin B]
GI50 [1, 10]: 100 nM
CC50 [1, 11]: 400 nM
TGI (total growth inhibition, cytostatic effect) ([1]; Table 1, NSCL cell line A-549, 48 hours exposure, SRB): 2.E−07 M
GI50 [2]: 70 nM
CC50 [2]: 700 nM
TGI (total growth inhibition, cytostatic effect) ([2]; Table 1, kidney cell line A498, 48 hours exposure, SRB): 2.E−07 M
GI50 [3, 10]: 70 nM
CC50 [3, 11]: 10000 nM
TGI (total growth inhibition, cytostatic effect) ([3]; Table 1, colon cell line HT-29, 48 hours exposure, SRB): 2.E−07 M
GI50 [4]: 70 nM
CC50 [4]: 10000 nM
TGI (total growth inhibition, cytostatic effect) ([4]; Table 1, colon cell line SW-620, 48 hours exposure, SRB): 3.E−07 M
GI50 [5]: 70 nM
CC50 [5]: 300 nM
TGI (total growth inhibition, cytostatic effect) ([5]; Table 1, melanoma cell line MEL-28, 48 hours exposure, SRB): 1.E−07 M
CC50 ([9]; Homo sapiens, OVCAR-3, 48 h, read-out: LC50 (50% net cell killing, cytotoxic effect)): 400 nM
GI50 ([9]; Homo sapiens, Table 1, ovary cell line OVCAR-3, 48 hours exposure, SRB, read-out: GI50 (50% growth inhibition)): 100 nM
TGI (total growth inhibition, cytostatic effect) ([9]; Table 1, ovary cell line OVCAR-3, 48 hours exposure, SRB): 3.E−07 M
GI50 [6]: 100 nM
CC50 [6]: 7000 nM
TGI (total growth inhibition, cytostatic effect) ([6]; Table 1, prostate cell line DU-145, 48 hours exposure, SRB): 3.E−07 M
GI50 ([7]; 48 h): 70 nM
CC50 ([7]; 48 h): 30000 nM
TGI (total growth inhibition, cytostatic effect) ([7]; Table 1, breast cell line MB-231, 48 hours exposure, SRB): 3.E−07 M
GI50 [8]: 100 nM
CC50 [8]: 4000 nM
TGI (total growth inhibition, cytostatic effect) ([8]; Table 1, breast cell line MCF-7, 48 hours exposure, SRB): 3.E−07 M

CS(=O)(=O)c1nccc(-c2c3cccnc3n3c(N)nccc23)n1 [Compound 6, sulfonyldeoxyvariolin]
GI50 ([1]; read-out: A-549 GI50): 4400 nM
CC50 ([1]; read-out: A-549 LC50): > 150000 nM
GI50 ([3]; read-out: HT-29 GI50): 29000 nM
CC50 ([3]; read-out: HT-29 LC50): > 150000 nM

CSc1nccc(-c2c3cccnc3n3c(SC)nccc23)n1 [Compound 19]
GI50 ([1]; read-out: A-549 GI50): 5900 nM
CC50 ([1]; read-out: A-549 LC50): 29000 nM
GI50 ([3]; read-out: HT-29 GI50): 5900 nM
CC50 ([3]; read-out: HT-29 LC50): 29000 nM

C[S+]([O-])c1nccc(-c2c3cccnc3n3c(N)nccc23)n1 (centres unmarked) [Compound 22, sulfinyldeoxyvariolin]
GI50 ([1]; read-out: A-549 GI50): 1200 nM
CC50 ([1]; read-out: A-549 LC50): 92000 nM
GI50 ([3]; read-out: HT-29 GI50): 920 nM
CC50 ([3]; read-out: HT-29 LC50): > 150000 nM

CC(=O)N(C(C)=O)c1nccc(-c2c3cccnc3n3c(N)nccc23)n1 [Compound 23a, N′-bisacetyldeoxyvariolin]
GI50 ([1]; read-out: A-549 GI50): 280 nM
CC50 ([1]; read-out: A-549 LC50): 2800 nM
GI50 ([3]; read-out: HT-29 GI50): 140 nM
CC50 ([3]; read-out: HT-29 LC50): 2800 nM

CC(=O)Nc1nccc2c(-c3ccnc(N(C(C)=O)C(C)=O)n3)c3cccnc3n12 [Compound 23b, N′-bisacetyl-N-acetyldeoxyvariolin]
GI50 ([1]; read-out: A-549 GI50): 740 nM
CC50 ([1]; read-out: A-549 LC50): 7400 nM
GI50 ([3]; read-out: HT-29 GI50): 100 nM
CC50 ([3]; read-out: HT-29 LC50): 2500 nM

CC(=O)N(C(C)=O)c1nccc(-c2c3cccnc3n3c(N(C(C)=O)C(C)=O)nccc23)n1 [Compound 23c, N′-bisacetyl-N-bisacetyldeoxyvariolin]
GI50 ([1]; read-out: A-549 GI50): 2200 nM
CC50 ([1]; read-out: A-549 LC50): 22000 nM
GI50 ([3]; read-out: HT-29 GI50): 1100 nM
CC50 ([3]; read-out: HT-29 LC50): 18000 nM

CC(=O)Nc1nccc(-c2c3cccnc3n3c(N)nccc23)n1 [Compound 23d, N′-acetyldeoxyvariolin]
GI50 ([1]; read-out: A-549 GI50): 630 nM
CC50 ([1]; read-out: A-549 LC50): 3200 nM
GI50 ([3]; read-out: HT-29 GI50): 630 nM
CC50 ([3]; read-out: HT-29 LC50): 3200 nM

CC(=O)Nc1nccc(-c2c3cccnc3n3c(NC(C)=O)nccc23)n1 [Compound 23e, N′-acetyl-N-acetyldeoxyvariolin]
GI50 ([1]; read-out: A-549 GI50): 2200 nM
CC50 ([1]; read-out: A-549 LC50): 28000 nM
GI50 ([3]; read-out: HT-29 GI50): 5500 nM
CC50 ([3]; read-out: HT-29 LC50): > 28000 nM
